Source: patent US20170274005A1, “TREATMENT OF RETINITIS PIGMENTOSA USING HYALURONIC ACID-CARBON NANOMATERIAL-PHOTOSENSITIZER COMPLEX” (POSTECH ACADEMY-INDUSTRY FOUNDATION, priority 2016, published 2017)

Key:
[1] = Analysis of prevention of active oxygen using DPPH; details: aqueous solution, 0 to 100 μg/mL based on the amount of Ce6, FIG. 2
[2] = tested on: retinal pigment epithelium cell; assay: MTT assay of retinal pigment epithelium cell treated using sodium iodate; type: cell-based; details: pre-treatment, then 5 mM sodium iodate, 24 hours, FIG. 5

Substance: chlorine e6 [Ce6]
- active oxygen suppression ability [1]: 60%
- viability of the pre-treated cell versus cell treated using sodium iodate only [2]: lower
